The values that follow come from patent US20230348369A1 (Cytokinetics, Inc., priority 2020, published 2023).

In one assay the target is T1, endogenous NAMPT (Homo sapiens, UniProt P43490).
T1 construct: stimulate the endogenous NAMPT in a native cellular environment; endogenous in cells; host or cells: SH-SY5Y neuroblastoma cells
Description: Cellular NAD+ modulation assay in neuroblastoma SH-SY5Y cells. The class given is cell-based. The procedure:
The compounds described herein were also assayed for their ability to stimulate the endogenous NAMPT in a native cellular environment in the cellular NAD+ modulation assay, which measures the ability of the compound to modulate cellular NAD levels. Increased levels of NAD are expected by compounds that permeate the cells and activate the catalytic activity of the endogenous NAMPT.
Neuroblastoma SH-SY5Y cells were grown in 1:1 mixture of Eagle's Minimum Essential Medium and F12 Medium, along with 10% fetal bovine serum, in a humidified incubator with an atmosphere of 95% air and 5% CO2 at 37° C. The assays were initiated by plating 20 μL of SH-SY5Y cells in culture medium with 0.1% fetal bovine serum, at a density of 5000 cells per well to a 384-well Corning™ BioCoat™ Poly-D-Lysine Multiwell Plates. The plates were incubated in the 37° C. incubators for a period of 5 hours. Compounds in DMSO were added to the plates in a volume of 120 nL using the Labcyte Echo Liquid Handlers. […] The plates are then incubated for 40 hours. 30 μL of a readout-solution containing 0.2 U/mL Diaphorase enzyme, 40 uM resazurin, 10 uM FMN, 0.8 U/mL Alcohol dehydrogenase, 3% ethanol, 0.4 mg/mL bovine serum albumin, 0.2% Triton X-100 in 100 mM Tris-HCl, 30 mM EDTA, pH 8.4. The plates were read for fluorescence (Excitation/Emission=540 nm/590 nm) using an EnVision plate reader after 60 mins of incubation at ambient temperature.

The target in the next assay is human NAMPT (Homo sapiens, UniProt P43490). In words: Human recombinant enzyme assay (NMN fluorescence biochemical assay, activation of NAMPT). The procedure, abridged: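 NMN production is detected fluorometrically (Ex 355/Em 460 nm) 40 min after acetophenone, KOH and formic acid derivatization. Reactions ran 60 min at ambient temperature: 6 nM human NAMPT, nicotinamide 150 μM, PRPP 20 μM, ATP 2.5 mM, buffered at pH 7.2 with 50 mM HEPES plus DTT, CHAPS, NaCl and 100 mM MgCl2.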

Setting [1] is: Table B, SH-SY5Y cells, cellular NAD levels, doxorubicin, 40 hours.
Where [2] appears, read: Table B, SH-SY5Y cells, cellular NAD levels, doxorubicin, 40 hours, read-out: EC50.
Where [3] appears, read: Table A, human recombinant NAMPT, NMN formation, 60 min.
[4] abbreviates: Table A, human recombinant NAMPT, NMN formation, 60 min, read-out: EC50 Human.

Where two headings read alike, the source gives them in different places.

T1 sequence (P43490 whole entry): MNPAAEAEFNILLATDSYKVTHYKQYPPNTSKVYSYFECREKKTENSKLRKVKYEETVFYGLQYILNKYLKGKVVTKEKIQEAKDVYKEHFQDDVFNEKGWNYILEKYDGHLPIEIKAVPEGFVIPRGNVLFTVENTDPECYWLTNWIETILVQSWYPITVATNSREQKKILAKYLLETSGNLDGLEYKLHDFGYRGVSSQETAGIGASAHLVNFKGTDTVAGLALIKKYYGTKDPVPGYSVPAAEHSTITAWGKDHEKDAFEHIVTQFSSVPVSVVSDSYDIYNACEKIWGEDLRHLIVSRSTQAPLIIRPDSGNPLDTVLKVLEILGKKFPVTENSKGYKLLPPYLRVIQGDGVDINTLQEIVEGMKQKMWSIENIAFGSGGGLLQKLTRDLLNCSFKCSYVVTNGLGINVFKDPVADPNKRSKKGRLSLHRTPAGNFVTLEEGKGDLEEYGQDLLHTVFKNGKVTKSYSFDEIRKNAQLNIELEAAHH
Chain of human NAMPT (P43490 whole entry): as above

On to `COc1ccc(CNC(=O)NC2CC3(C2)CC(C(=O)N2CCc4ccccc42)C3)cc1` (stereo not shown) [Compound 74, 1-(6-(indoline-1-carbonyl)spiro[3.3]heptan-2-yl)-3-(4-methoxybenzyl)urea], for which the AC0.3 on endogenous NAMPT (setting [1]) is 0.3 µM. Besides, the EC50 came to 500 nM on endogenous NAMPT (setting [2]) and 13300 nM at human NAMPT (setting [4]). In addition, the “AC1.4 Human” value at human NAMPT (setting [3]) worked out at 0.8 µM.
The matching figures for `Cc1ncccc1C(=O)NC1CC2(CC(NC(=O)NCc3ccc(Cl)cc3)C2)C1` (stereo not shown) [Compound 203, N-(6-(3-(4-chlorobenzyl)ureido)spiro[3.3]heptan-2-yl)-2-methylnicotinamide]: 8.9 µM, 10000 nM, 34300 nM and 8.2 µM.
The corresponding values for `COc1ccc(CNC(=O)NCCCCCOc2ccccc2)cc1` [Compound 149, 1-(4-methoxybenzyl)-3-(5-phenoxypentyl)urea] are 0.6 µM, 1100 nM, 4900 nM and 0.3 µM.
The compound `Cc1ccc(C(=O)N2CC[C@]3(C2)C[C@H](NC(=O)NCc2ccc(Cl)cc2)C3)cc1` [Compound 164, 1-(4-chlorobenzyl)-3-((2s,4r)-6-(4-methylbenzoyl)-6-azaspiro[3.4]octan-2-yl)urea] gave an AC0.3 on endogenous NAMPT (setting [1]) of 11.6 µM. The EC50 at endogenous NAMPT (setting [2]) turned out to be 12900 nM; at human NAMPT (setting [4]) it was 40100 nM. Also, the “AC1.4 Human” value at human NAMPT (setting [3]) stood at 12.6 µM.
Consider `Cc1ccc(C(=O)NC[C@H]2C[C@]3(C2)C[C@@H](NC(=O)NCc2ccc(Cl)cc2)C3)cn1` (stereo partly shown) [Compound 249, N-((6-(3-(4-chlorobenzyl)ureido)spiro[3.3]heptan-2-yl)methyl)-6-methyl-nicotinamide], for which the EC50 on endogenous NAMPT (setting [2]) stood at 900 nM; on human NAMPT (setting [4]), 2700 nM.
Regarding `CC(C)(O)CN1CCN(C(=O)[C@H]2C[C@@]3(C[C@H](NC(=O)NCc4ccc(Cl)cc4)C3)C2)CC1` (single isomer, unassigned) [Compound 187], the EC50 on endogenous NAMPT came out at 200 nM; on human NAMPT, 600 nM.
For the compound `N#Cc1ccccc1C(=O)NC1CC2(CC(NC(=O)NCc3ccc(Cl)cc3)C2)C1` (stereo not shown) [Compound 212, N-(6-(3-(4-chlorobenzyl)ureido)spiro[3.3]heptan-2-yl)-2-cyanobenzamide], the EC50 on endogenous NAMPT was determined as 100 nM; at human NAMPT, 6000 nM. On endogenous NAMPT (setting [1]), the AC0.3 was 0.3 µM. For the same compound, on human NAMPT (setting [3]), the “AC1.4 Human” value worked out at 7.2 µM.
`COc1ccc(CNC(=O)NC2CC3(C2)CN(C(=O)c2ccc(C)nc2)C3)cc1` [Compound 138, 1-(4-methoxybenzyl)-3-(2-(6-methylnicotinoyl)-2-azaspiro[3.3]heptan-6-yl)urea] displayed an AC0.3 at endogenous NAMPT (setting [1]) of 9.1 µM. The EC50 at endogenous NAMPT (setting [2]) was 10100 nM; on human NAMPT (setting [4]) it was 43200 nM. In addition, the “AC1.4 Human” value at human NAMPT (setting [3]) stood at 5.7 µM.
With `O=C(NCCCCC1CCN(C(=O)c2ccccc2)CC1)NCc1ccc(Cl)cc1` [Compound 16, 1-(4-(1-benzoylpiperidin-4-yl)butyl)-3-(4-chlorobenzyl)urea], the EC50 amounted to 100 nM on endogenous NAMPT and 300 nM at human NAMPT. At endogenous NAMPT (setting [1]), this compound showed an AC0.3 of 0.1 µM. The “AC1.4 Human” value on human NAMPT (setting [3]) came out at 0.1 µM.
In turn, `Cc1ncccc1CC1CC2(C1)CC(NC(=O)NCc1ccc(Cl)cc1)C2` (stereo not shown) [Compound 346, 1-(4-chlorobenzyl)-3-(6-((2-methylpyridin-3-yl)methyl)spiro[3.3]heptan-2-yl)urea] gave an AC0.3 at endogenous NAMPT (setting [1]) of 0.1 µM. For the same compound, the EC50 is 100 nM on endogenous NAMPT (setting [2]) and > 62500 nM at human NAMPT (setting [4]). Moreover, the “AC1.4 Human” value at human NAMPT (setting [3]) is 62.5 µM.
The corresponding values for `O=C(NCc1ccc(Cl)cc1)NC1CC2(CC(Cc3ccncc3)C2)C1` (stereo not shown) [Compound 329, 1-(4-chlorobenzyl)-3-(6-(pyridin-4-ylmethyl)spiro[3.3]heptan-2-yl)urea] are 0.1 µM, 100 nM, > 62500 nM and 62.5 µM.
`COc1ccc(CNC(=O)NC2CC3(C2)CC(C(=O)N2CCCc4cnccc42)C3)cc1` (stereo not shown) [Compound 90, 1-(4-methoxybenzyl)-3-(6-(1,2,3,4-tetrahydro-1,6-naphthyridine-1-carbonyl)spiro[3.3]heptan-2-yl)urea]: the AC0.3 at endogenous NAMPT (setting [1]) amounted to 0.9 µM. In addition, the EC50 on endogenous NAMPT (setting [2]) was 800 nM; on human NAMPT (setting [4]) it was 5100 nM. Also, the “AC1.4 Human” value on human NAMPT (setting [3]) was determined as 0.3 µM.
`COc1ccc(CNC(=O)N[C@H]2C[C@]3(C2)C[C@H](C(=O)N2CCCc4ccccc42)C3)cc1` (stereo partly shown) [Compound 229, 1-(4-methoxy-benzyl)-3-(6-(1,2,3,4-tetrahydro-quinoline-1-carbonyl)spiro[3.3]heptan-2-yl)urea]: the EC50 on endogenous NAMPT (setting [2]) stood at 200 nM; at human NAMPT (setting [4]), 1200 nM.
As for `COc1ccc(CNC(=O)NC2CC3(C2)CC(C(=O)N2CCOc4ccccc42)C3)cc1` (stereo not shown) [Compound 85, 1-(6-(3,4-dihydro-2H-benzo[b][1,4]oxazine-4-carbonyl)spiro[3.3]heptan-2-yl)-3-(4-methoxybenzyl)urea], the AC0.3 at endogenous NAMPT (setting [1]) was determined as 0.9 µM. Besides, the EC50 at endogenous NAMPT (setting [2]) amounted to 800 nM; on human NAMPT (setting [4]), 1600 nM. Moreover, the “AC1.4 Human” value on human NAMPT (setting [3]) is 0.1 µM.
As for `CN(C(=O)CCCCCNC(=O)NCc1cnco1)c1ccccc1F` [Compound 288, N-(2-fluorophenyl)-N-methyl-6-(3-(oxazol-5-ylmethyl)ureido)hexanamide], the AC0.3 on endogenous NAMPT (setting [1]) amounted to 0.3 µM. Further, the values for the EC50 at endogenous NAMPT (setting [2]) and at human NAMPT (setting [4]) were 800 nM and 3700 nM, respectively. The “AC1.4 Human” value at human NAMPT (setting [3]) worked out at 0.3 µM.
With `Cc1cccc(C(=O)N2CC[C@]3(C2)C[C@@H](NC(=O)NCc2ccc(Cl)cc2)C3)c1` [Compound 161, 1-(4-chlorobenzyl)-3-((2r,4s)-6-(3-methylbenzoyl)-6-azaspiro[3.4]octan-2-yl)urea], the AC0.3 on endogenous NAMPT (setting [1]) was 0.3 µM. The EC50 on endogenous NAMPT (setting [2]) is 800 nM; on human NAMPT (setting [4]), 15700 nM. Moreover, the “AC1.4 Human” value on human NAMPT (setting [3]) was found to be 7.5 µM.
For `Cc1cccc(N2CC[C@]3(C2)C[C@H](NC(=O)NCc2ccc(Cl)cc2)C3)n1` [Compound 199, 1-(4-chlorobenzyl)-3-((2s,4r)-6-(6-methylpyridin-2-yl)-6-azaspiro[3.4]octan-2-yl)urea], the AC0.3 on endogenous NAMPT (setting [1]) was found to be 2.0 µM. For the same compound, on human NAMPT (setting [3]), the “AC1.4 Human” value was found to be 10.6 µM. In addition, on human NAMPT (setting [4]), the EC50 is 42200 nM.
The corresponding values for `Cc1ccc(C(=O)N2CC3(CC(NC(=O)NCc4ccc(=O)[nH]c4)C3)C2)cc1` [Compound 214, 1-(2-(4-methylbenzoyl)-2-azaspiro[3.3]heptan-6-yl)-3-((6-oxo-1,6-dihydropyridin-3-yl)methyl)urea] are >20.1 µM, 10.5 µM and 36700 nM.
Consider `NC(=O)c1ccc(CNC(=O)NCCCCC2CCN(C(=O)c3ccccc3)CC2)cc1` [Compound 19, 4-((3-(4-(1-benzoylpiperidin-4-yl)butyl)ureido)methyl)benzamide], for which, on endogenous NAMPT (setting [1]), the AC0.3 was 1.6 µM. For the same compound, the EC50 was 1300 nM on endogenous NAMPT (setting [2]) and 1800 nM at human NAMPT (setting [4]). In addition, the “AC1.4 Human” value on human NAMPT (setting [3]) was 0.1 µM.
Turning to `CC(C)(C)OC(=O)N1CCC2(CC1)CC2CNC(=O)NCc1ccc(CO)cc1` (stereo not shown) [Compound 29, tert-butyl 1-((3-(4-(hydroxymethyl)benzyl)ureido)methyl)-6-azaspiro[2.5]octane-6-carboxylate], the EC50 amounted to 2200 nM on endogenous NAMPT (setting [2]) and 26700 nM on human NAMPT (setting [4]).

In general, EC50 refers to the concentration that produces a half-maximal response.
